Source: publication PMC4811560, “Kinetic Characterisation of a Single Chain Antibody against the Hormone Abscisic Acid: Comparison with Its Parental Monoclonal” (PLoS ONE, 2016)
Where two headings read alike, the source gives them in different places. Marks after values point to notes of the source that are not given here.

Assays:
mAb 15-I-C5 = conditions: cited from earlier work
MBP-antiABA-scFv = assay: SPR affinity in solution (competitive titration) of test compounds for the scFv; format: binding, mouse; conditions: for Cross-reactivity MBP-aABA-scFv: from KA relative to (+)-ABA = 100%; for Affinity in solution, MBP-aABA-scFv, KA / Kd: scFv 25 nM, 1 hour at 25°C; for Kd: read-out: Affinity in solution, MBP-aABA-scFv, KD
Experimental: All heterogeneous phase (surface) techniques can be subject to artefacts introduced by ligand immobilisation or e.g. biotinylation of the free ligand. […] The equilibrium mixtures (1 hour at 25°C) were injected over an SA chip surface saturated with b-PEG-ABA at high ligand density, and the initial binding rate of free scFv was measured. The concentration of free scFv from each equilibrium mixture was determined from a calibration curve (S6A Fig) and plotted against the concentration of free (+)-ABA. Data points were fitted to the solution affinity model in BIAevaluation (S5B Fig). […] Thus, the kinetics of the fusion protein have been described with confidence. Next these were compared with the characteristics of both cleaved, free scFv and with the parental monoclonal immunoglobulin.
The selectivity of the scFv for (+)-ABA was tested by determining the affinity in solution for structurally or physiologically related compounds. […] The concentration of free scFv in the equilibrium mixtures was determined and plotted against concentration of competitor. Affinity was determined by fitting the data points to a solution affinity model (Fig 4). The KA value was determined for each compound, and then percentage cross-reactivity was calculated by expressing each KA value relative to the KA for (+)-ABA. Values were compared to literature data for the parental monoclonal antibody (Table 3).
Fig 4 Cross-reactivity of the anti-ABA-scFv. […] The concentration of free scFv in the equilibrium mixtures was plotted against the concentration of test compound. The structures of each competitor are shown framed in the same colours as the data in the dose graph. There is no box for the racemic mix. The colour code for each compound is shown on the left of the plot.
Figure S6. Affinity in solution. (a) A calibration curve was generated by injecting known concentrations of free MBP-antiABA-scFv (0.1 nM – 50 nM) over the surface of a SA sensor chip saturated with b -PEG-ABA, plotting the initial binding rate against concentration and fitting the data points to a 4 -parameter equation. (b) MBP- […]
1 nM, 5 nM, 10 nM, 50 nM, 100 nM, 200 nM, 500 nM), and the mixtures incubated to equilibrium (1 hour at 25°C). The concentration of free MBP -antiABA-scFv in the equilibrium mixtures was then determined from the calibration curve. The concentration of free MBP -antiABA-scFv in the equilibrium mixtures was plotted against (+)-ABA concentration and the data points were fitted to a solution affinity […]
(1 picture or pasted object on this page, not shown here)

[1] = no reference given; cited from earlier work
[2] = radiolabel displacement curves, 50% displacement, ref Phytodetek manual m100.2, Agdia Inc.
[3] = radiolabel displacement curves, 50% displacement, ref Walker-Simmons et al., 1991

Structure (SMILES): CC1=CC(=O)CC(C)(C)[C@@]1(O)/C=C/C(C)=C/C(=O)O [2-trans-(S)-(+)-ABA]
- Cross-reactivity mAb 15-I-C5 (mAb 15-I-C5; [2]): 0%
- Cross-reactivity mAb 15-I-C5 (mAb 15-I-C5; [3]): 0.98%

Structure (SMILES): CC(C=CC1(O)C(C)=CC(=O)CC1(C)C)=CC(=O)O (racemic) [2-cis-(R,S)-(±)-ABA]
- Cross-reactivity MBP-aABA-scFv (MBP-antiABA-scFv): 44.25%
- Cross-reactivity MBP-aABA-scFv (MBP-antiABA-scFv; listed as (±)-ABA): 44.3%
- Affinity in solution, MBP-aABA-scFv, KA (MBP-antiABA-scFv): 1.31e+08 M⁻¹
- Kd (MBP-antiABA-scFv): 0.00761 µM
- Cross-reactivity mAb 15-I-C5 (mAb 15-I-C5; [3]): 49.4 ^d %

Structure (SMILES): CC1=CC(=O)CC(C)(C)C1(O)/C=C/C(C)=C\C(=O)O (centres unmarked) [ABA, abscisic acid]
- pKa [1]: 4.75

Structure (SMILES): CC(=C/C(=O)O)/C=C/[C@]1(O)[C@@]2(C)CO[C@]1(C)CC(=O)C2 [Phaseic acid]
- Cross-reactivity MBP-aABA-scFv (MBP-antiABA-scFv): 0.029%
- Cross-reactivity MBP-aABA-scFv (MBP-antiABA-scFv; listed as phaseic acid): 0.03%
- affinity, fold lower than that for (+)-ABA (MBP-antiABA-scFv; scFv): over 100 fold
- Affinity in solution, MBP-aABA-scFv, KA (MBP-antiABA-scFv): 88200 M⁻¹
- Kd (MBP-antiABA-scFv): 11.3 µM
- Cross-reactivity mAb 15-I-C5 (mAb 15-I-C5; [2]): <0.1 ^c %

Structure (SMILES): NCCCCC(N)C(=O)O (racemic) [D,L-Lysine]
- Cross-reactivity MBP-aABA-scFv (MBP-antiABA-scFv): 0.00006%
- Cross-reactivity MBP-aABA-scFv (MBP-antiABA-scFv; listed as lysine): lower than 10^−4%
- Affinity in solution, MBP-aABA-scFv, KA (MBP-antiABA-scFv): 163 M⁻¹
- Kd (MBP-antiABA-scFv): 6120 µM

Structure (SMILES): C=C1C[C@]23C[C@@]1(O)CC[C@H]2[C@@]12C=C[C@H](O)[C@@](C)(C(=O)O1)[C@H]2[C@@H]3C(=O)O [Gibberellic acid]
- Cross-reactivity MBP-aABA-scFv (MBP-antiABA-scFv): 0.00001%
- Cross-reactivity MBP-aABA-scFv (MBP-antiABA-scFv; listed as gibberellic acid): lower than 10^−4%
- Affinity in solution, MBP-aABA-scFv, KA (MBP-antiABA-scFv): 30.4 M⁻¹
- Kd (MBP-antiABA-scFv): 32800 µM

Structure (SMILES): O=C(O)c1ccccc1 [Benzoic acid]
- Cross-reactivity MBP-aABA-scFv (MBP-antiABA-scFv): 0.00003%
- Cross-reactivity MBP-aABA-scFv (MBP-antiABA-scFv; listed as benzoic acid): lower than 10^−4%
- Affinity in solution, MBP-aABA-scFv, KA (MBP-antiABA-scFv): 91.7 M⁻¹
- Kd (MBP-antiABA-scFv): 10900 µM

Structure (SMILES): O=C(O)Cc1c[nH]c2ccccc12 [Indole-3-acetic acid]
- Cross-reactivity MBP-aABA-scFv (MBP-antiABA-scFv): 0.00005%
- Cross-reactivity MBP-aABA-scFv (MBP-antiABA-scFv; listed as auxin): lower than 10^−4%
- Affinity in solution, MBP-aABA-scFv, KA (MBP-antiABA-scFv): 138 M⁻¹
- Kd (MBP-antiABA-scFv): 7230 µM

Structure (SMILES): CC(C)=CCC/C(C)=C/CC/C(C)=C/CO [All-trans-Farnesol]
- Cross-reactivity MBP-aABA-scFv (MBP-antiABA-scFv): 0.00002%
- Cross-reactivity MBP-aABA-scFv (MBP-antiABA-scFv; listed as farnesol): lower than 10^−4%
- Affinity in solution, MBP-aABA-scFv, KA (MBP-antiABA-scFv): 58.4 M⁻¹
- Kd (MBP-antiABA-scFv): 17100 µM
- Cross-reactivity mAb 15-I-C5 (mAb 15-I-C5; [2]): 0 ^c %

Structure (SMILES): CC1=CC(=O)CC(C)(C)[C@@]1(O)/C=C/C(C)=C\C(=O)O [2-cis-(S)-(+)-ABA]
- Cross-reactivity MBP-aABA-scFv (MBP-antiABA-scFv): 100%
- affinity relative to the inactive (-)-ABA (MBP-antiABA-scFv; scFv): three orders of magnitude higher
- Affinity in solution, MBP-aABA-scFv, KA (MBP-antiABA-scFv): 2.96e+08 M⁻¹
- Kd (MBP-antiABA-scFv): 0.00337 µM
- Cross-reactivity mAb 15-I-C5 (mAb 15-I-C5; reference value, determined by other investigators, no source marked): 100%

Structure (SMILES): CC(C=CC1C(C)=CC(=O)CC1(C)C)=CC(=O)O (mixture of isomers) [2-cis-(R,S)-(±)-1’-deoxy-ABA]
- Cross-reactivity MBP-aABA-scFv (MBP-antiABA-scFv): 0.309%
- Cross-reactivity MBP-aABA-scFv (MBP-antiABA-scFv; listed as 1ʹ-deoxy-ABA): 0.3%
- affinity, fold lower than that for (+)-ABA (MBP-antiABA-scFv; scFv): over 100 fold
- Affinity in solution, MBP-aABA-scFv, KA (MBP-antiABA-scFv): 917000 M⁻¹
- Kd (MBP-antiABA-scFv): 1.09 µM

Structure (SMILES): CC(C=CC12OC1(C)CC(O)CC2(C)C)=CC=O (centres unmarked) [Xanthoxin]
- Cross-reactivity MBP-aABA-scFv (MBP-antiABA-scFv): 0.0002%
- Cross-reactivity MBP-aABA-scFv (MBP-antiABA-scFv; listed as xanthoxin): lower than 10^−4%
- Affinity in solution, MBP-aABA-scFv, KA (MBP-antiABA-scFv): 617 M⁻¹
- Kd (MBP-antiABA-scFv): 1620 µM
- Cross-reactivity mAb 15-I-C5 (mAb 15-I-C5; [2]): 0 ^c %

Structure (SMILES): CC(C=CC1(O)C2(C)COC1(C)CC(O)C2)=CC(=O)O (centres unmarked) [Dihydrophaseic acid]
- Cross-reactivity MBP-aABA-scFv (MBP-antiABA-scFv): 0.156%
- Cross-reactivity MBP-aABA-scFv (MBP-antiABA-scFv; listed as dihydrophaseic acid): 0.16%
- affinity, fold lower than that for (+)-ABA (MBP-antiABA-scFv; scFv): over 100 fold
- Affinity in solution, MBP-aABA-scFv, KA (MBP-antiABA-scFv): 462000 M⁻¹
- Kd (MBP-antiABA-scFv): 2.17 µM
- Cross-reactivity mAb 15-I-C5 (mAb 15-I-C5; [2]): <0.1 ^c %
